Measured values: the NIST ThermoML archive (doi:10.1016/j.fluid.2018.08.012)
± gives the expanded uncertainty stated by the source.

Experiment: mn = molality of the nth substance listed, in mol/kg
Conditions: Fluid (supercritical or subcritical phases), Vibrating tube method, m1 = 0.2867

O=O [oxygen] + O=C=O
Conditions	mass density [kg/m3]
324.14 K, 2522.5 kPa	45.49 ± 0.08
324.14 K, 2531.8 kPa	45.7 ± 0.08
324.14 K, 4992.7 kPa	102.94 ± 0.19
324.14 K, 4998.9 kPa	103.15 ± 0.19
324.14 K, 7566.1 kPa	190.74 ± 0.49
324.14 K, 7573.3 kPa	191.05 ± 0.49
324.14 K, 10066 kPa	353.17 ± 1.1
324.14 K, 10098 kPa	356.14 ± 1.1
324.14 K, 12475 kPa	568.33 ± 1.4
324.14 K, 12572 kPa	574.14 ± 1.4
324.14 K, 15029 kPa	672.53 ± 1.2
324.14 K, 15098 kPa	674.53 ± 1.2
324.14 K, 17553 kPa	728.46 ± 0.99
324.14 K, 17623 kPa	729.72 ± 0.99
324.14 K, 20076 kPa	766.9 ± 0.87
324.14 K, 20148 kPa	767.83 ± 0.87
324.14 K, 22597 kPa	796.51 ± 0.79
324.14 K, 22667 kPa	797.24 ± 0.8
324.14 K, 25116 kPa	820.6 ± 0.74
324.14 K, 25186 kPa	821.19 ± 0.74
324.14 K, 27631 kPa	841.02 ± 0.72
324.14 K, 27694 kPa	841.49 ± 0.72
324.14 K, 30138 kPa	858.75 ± 0.71
324.14 K, 30191 kPa	859.1 ± 0.71
324.14 K, 32647 kPa	874.55 ± 0.67
324.14 K, 32683 kPa	874.75 ± 0.67
324.14 K, 35167 kPa	888.83 ± 0.72
324.14 K, 35203 kPa	889.04 ± 0.72
349.64 K, 2302.3 kPa	37.34 ± 0.07
349.64 K, 2512.6 kPa	41.14 ± 0.07
349.64 K, 4999.4 kPa	89.28 ± 0.15
349.64 K, 5056.2 kPa	90.61 ± 0.16
349.64 K, 7565.3 kPa	151.08 ± 0.29
349.64 K, 7587.3 kPa	151.35 ± 0.29
349.64 K, 10124 kPa	230.35 ± 0.59
349.64 K, 10132 kPa	230.46 ± 0.59
349.64 K, 12648 kPa	331.76 ± 1
349.64 K, 12654 kPa	331.87 ± 1
349.64 K, 15179 kPa	445.16 ± 1.3
349.64 K, 15184 kPa	445.19 ± 1.3
349.64 K, 17705 kPa	539.74 ± 1.3
349.64 K, 17709 kPa	539.82 ± 1.3
349.64 K, 20232 kPa	608.22 ± 1.2
349.64 K, 20234 kPa	608.3 ± 1.2
349.64 K, 22753 kPa	658.24 ± 1.1
349.64 K, 22754 kPa	658.22 ± 1.1
349.64 K, 25272 kPa	696.75 ± 1
349.64 K, 25273 kPa	696.87 ± 1
349.64 K, 27781 kPa	727.9 ± 0.99
349.64 K, 27787 kPa	728.07 ± 0.99
349.64 K, 30280 kPa	753.96 ± 0.96
349.64 K, 30284 kPa	754.07 ± 0.96
349.64 K, 32783 kPa	776.37 ± 0.94
349.64 K, 32788 kPa	776.48 ± 0.94
349.64 K, 35276 kPa	795.97 ± 0.96
349.64 K, 35282 kPa	796.06 ± 0.96
375.03 K, 2543.1 kPa	38.14 ± 0.07
375.03 K, 2546.2 kPa	38.31 ± 0.07
375.03 K, 5059.3 kPa	80.85 ± 0.13
375.03 K, 5060.3 kPa	80.97 ± 0.13
375.03 K, 7540.3 kPa	129.17 ± 0.23
375.03 K, 7545.1 kPa	129.65 ± 0.23
375.03 K, 10091 kPa	186.78 ± 0.38
375.03 K, 10093 kPa	186.66 ± 0.38
375.03 K, 12606 kPa	251.89 ± 0.59
375.03 K, 12615 kPa	252.03 ± 0.59
375.03 K, 15138 kPa	324.48 ± 0.84
375.03 K, 15156 kPa	324.83 ± 0.84
375.03 K, 17663 kPa	398.41 ± 1.1
375.03 K, 17683 kPa	398.81 ± 1.1
375.03 K, 20185 kPa	466.78 ± 1.2
375.03 K, 20209 kPa	467.22 ± 1.2
375.03 K, 22704 kPa	525.43 ± 1.3
375.03 K, 22730 kPa	525.92 ± 1.3
375.03 K, 25225 kPa	574.34 ± 1.3
375.03 K, 25249 kPa	574.81 ± 1.3
375.03 K, 27742 kPa	614.94 ± 1.2
375.03 K, 27764 kPa	615.3 ± 1.2
375.03 K, 30257 kPa	648.94 ± 1.2
375.03 K, 30265 kPa	649.12 ± 1.2
375.03 K, 32764 kPa	678.12 ± 1.2
375.03 K, 32769 kPa	678.04 ± 1.2
375.03 K, 35257 kPa	703.36 ± 1.3
375.03 K, 35260 kPa	703.21 ± 1.3
400.19 K, 2573.8 kPa	35.12 ± 0.07
400.19 K, 2574.8 kPa	35.31 ± 0.07
400.19 K, 5072.3 kPa	73.3 ± 0.12
400.19 K, 5100.4 kPa	73.64 ± 0.12
400.19 K, 7612.6 kPa	115.55 ± 0.2
400.19 K, 7616.5 kPa	115.71 ± 0.2
400.19 K, 10127 kPa	162.27 ± 0.31
400.19 K, 10138 kPa	162.47 ± 0.31
400.19 K, 12592 kPa	211.79 ± 0.46
400.19 K, 12600 kPa	212.51 ± 0.46
400.19 K, 15121 kPa	265.98 ± 0.64
400.19 K, 15134 kPa	266.82 ± 0.64
400.19 K, 17648 kPa	321.85 ± 0.83
400.19 K, 17661 kPa	322.66 ± 0.83
400.19 K, 20173 kPa	377.08 ± 1
400.19 K, 20186 kPa	377.95 ± 1
400.19 K, 22693 kPa	429.17 ± 1.2
400.19 K, 22707 kPa	430.08 ± 1.2
400.19 K, 25212 kPa	476.61 ± 1.3
400.19 K, 25228 kPa	477.53 ± 1.3
400.19 K, 27728 kPa	518.93 ± 1.4
400.19 K, 27743 kPa	519.82 ± 1.4
400.19 K, 30241 kPa	556.24 ± 1.4
400.19 K, 30253 kPa	557.1 ± 1.4
400.19 K, 32739 kPa	588.97 ± 1.4
400.19 K, 32757 kPa	589.89 ± 1.4
400.19 K, 35235 kPa	617.97 ± 1.4
400.19 K, 35247 kPa	618.78 ± 1.4
